Where a name gives a salt, the structure may show the parent alone.
Legend:
Bovine LOX = molecular target: T1, Bovine LOX (Bos taurus, UniProt P33072); experiment: LOX amine oxidase inhibition, peroxidase-coupled Amplex Red assay; type: biochemical; settings: 30 min preincubation at 37° C., putrescine substrate
T1 sequence (P33072 170-418): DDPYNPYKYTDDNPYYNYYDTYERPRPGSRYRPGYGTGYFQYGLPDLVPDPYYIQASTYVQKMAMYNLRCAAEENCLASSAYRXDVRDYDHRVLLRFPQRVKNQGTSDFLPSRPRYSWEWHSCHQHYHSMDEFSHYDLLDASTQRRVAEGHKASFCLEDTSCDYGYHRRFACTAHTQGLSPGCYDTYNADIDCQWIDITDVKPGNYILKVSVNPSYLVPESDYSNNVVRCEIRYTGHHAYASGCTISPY
From the text: (§1) Method to Determine the Ability of Compounds of the Invention to Inhibit LOX and LOXL1-4 from Different Sources
Lysyl oxidase (LOX) is an extracellular copper dependent enzyme which oxidizes peptidyl lysine and hydroxylysine residues in collagen and lysine residues in elastin to produce peptidyl alpha-aminoadipic-delta-semialdehydes. […] There are five LOX family members; these are LOX, LOXL1, LOXL2, LOXL3 and LOXL4. LOX and LOXL family members can be acquired as recombinant active proteins from commercial sources, or extracted from animal tissues like bovine aorta, tendons, pig skin; or prepared from cell cultures. The inhibitory effects of the compounds of the present invention were tested against the given LOX-LOXL preparation using a high-throughput coupled colorimetric method (Holt A. and Palcic M., A peroxidase-coupled continuous absorbance plate-reader assay for flavin monoamine oxidases, copper-containing amine oxidases and related enzymes. Nat. Protoc. 2006; 1: 2498-2505). The assay was developed using either 384 or 96 well format. Briefly, in a standard 384 well plate assay 25 μL of a dilution of any of the isoenzymes and orthologues in 1.2 M urea, 50 mM sodium borate buffer (pH 8.2) were added into each well in the presence of 1 μM mofegiline and 0.5 mM pargyline (to inhibit SSAO and MAO-B and MAO-A, respectively). […] Twenty five μL of a reaction mixture containing twice the KM concentration of putrescine (Sigma Aldrich, e.g. 20 mM for LOX, or 10 mM for LOXL2 and LOXL3), 120 μM Amplex Red (Sigma Aldrich) and 1.5 U/mL horseradish peroxidase (Sigma Aldrich) prepared in 1.2 M urea, 50 mM sodium borate buffer (pH 8.2) were then added to the corresponding wells. The above volumes were doubled in the case of 96 wells plate. The fluorescence (RFU) was read every 2.5 min for 30 min at a range of temperatures from 37° to 45° C., excitation 565 nm and emission 590 (Optima; BMG labtech). The slope of the kinetics for each well was calculated using MARS data analysis software (BMG labtech) and this value was used to deduce the IC50 value (Dotmatics).

Human LOXL2 = molecular target: T2, Human LOXL2 (Homo sapiens, UniProt Q9Y4K0); experiment: LOXL2 amine oxidase inhibition, peroxidase-coupled Amplex Red assay; type: biochemical; settings: 30 min preincubation at 37° C., putrescine substrate
T2 sequence (Q9Y4K0 26-774): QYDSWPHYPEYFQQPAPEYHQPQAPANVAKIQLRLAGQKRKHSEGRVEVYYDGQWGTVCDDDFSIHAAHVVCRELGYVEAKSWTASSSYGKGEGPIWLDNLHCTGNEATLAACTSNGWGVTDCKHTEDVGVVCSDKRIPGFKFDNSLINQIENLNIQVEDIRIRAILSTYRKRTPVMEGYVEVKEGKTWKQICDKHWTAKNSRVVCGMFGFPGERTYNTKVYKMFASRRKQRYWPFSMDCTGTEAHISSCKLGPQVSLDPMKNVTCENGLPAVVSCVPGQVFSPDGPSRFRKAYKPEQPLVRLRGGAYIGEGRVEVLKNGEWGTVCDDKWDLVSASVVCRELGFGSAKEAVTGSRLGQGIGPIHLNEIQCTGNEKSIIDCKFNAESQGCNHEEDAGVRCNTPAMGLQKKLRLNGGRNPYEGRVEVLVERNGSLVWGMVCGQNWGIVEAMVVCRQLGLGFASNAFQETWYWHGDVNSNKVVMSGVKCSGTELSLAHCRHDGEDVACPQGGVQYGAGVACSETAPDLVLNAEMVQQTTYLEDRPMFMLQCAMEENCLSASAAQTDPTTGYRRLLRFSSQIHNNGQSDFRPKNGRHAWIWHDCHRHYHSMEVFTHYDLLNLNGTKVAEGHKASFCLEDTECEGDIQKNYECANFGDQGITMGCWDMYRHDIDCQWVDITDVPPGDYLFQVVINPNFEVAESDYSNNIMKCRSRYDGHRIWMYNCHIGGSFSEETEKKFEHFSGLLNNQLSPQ
From the text: as §1
Lysyl oxidase (LOX) is an extracellular copper dependent enzyme which oxidizes peptidyl lysine and hydroxylysine residues in collagen and lysine residues in elastin to produce peptidyl alpha-aminoadipic-delta-semialdehydes. […] There are five LOX family members; these are LOX, LOXL1, LOXL2, LOXL3 and LOXL4. LOX and LOXL family members can be acquired as recombinant active proteins from commercial sources, or extracted from animal tissues like bovine aorta, tendons, pig skin; or prepared from cell cultures. The inhibitory effects of the compounds of the present invention were tested against the given LOX-LOXL preparation using a high-throughput coupled colorimetric method (Holt A. and Palcic M., A peroxidase-coupled continuous absorbance plate-reader assay for flavin monoamine oxidases, copper-containing amine oxidases and related enzymes. Nat. Protoc. 2006; 1: 2498-2505). The assay was developed using either 384 or 96 well format. Briefly, in a standard 384 well plate assay 25 μL of a dilution of any of the isoenzymes and orthologues in 1.2 M urea, 50 mM sodium borate buffer (pH 8.2) were added into each well in the presence of 1 μM mofegiline and 0.5 mM pargyline (to inhibit SSAO and MAO-B and MAO-A, respectively). Test compounds were dissolved in DMSO and tested in a Concentration Response Curve (CRC) with 11 data points, typically in the micromolar or nanomolar range after incubation with the enzyme for 30 min at 37° C. Twenty five μL of a reaction mixture containing twice the KM concentration of putrescine (Sigma Aldrich, e.g. 20 mM for LOX, or 10 mM for LOXL2 and LOXL3), 120 μM Amplex Red (Sigma Aldrich) and 1.5 U/mL horseradish peroxidase (Sigma Aldrich) prepared in 1.2 M urea, 50 mM sodium borate buffer (pH 8.2) were then added to the corresponding wells. The above volumes were doubled in the case of 96 wells plate. The fluorescence (RFU) was read every 2.5 min for 30 min at a range of temperatures from 37° to 45° C., excitation 565 nm and emission 590 (Optima; BMG labtech). The slope of the kinetics for each well was calculated using MARS data analysis software (BMG labtech) and this value was used to deduce the IC50 value (Dotmatics).

Row | IC50 (Bovine LOX) [µM] | IC50 (Human LOXL2) [µM] | SMILES
1 | < 10 | < 1 | Cc1nn(C/C(F)=C/CN)c(C)c1-c1cccc(S(=O)(=O)N(C)C)c1 [Compound 33, (Z)-3-(1-(4-amino-2-fluorobut-2-en-1-yl)-3,5-dimethyl-1H-pyrazol-4-yl)-N,N-dimethylbenzenesulfonamide]
2 | < 10 | < 1 | Cc1c(-c2cccc(S(=O)(=O)N(C)C)c2)c(Cl)nn1C/C(F)=C/CN [Compound 34, (Z)-3-(1-(4-amino-2-fluorobut-2-en-1-yl)-3-chloro-5-methyl-1H-pyrazol-4-yl)-N,N-dimethylbenzenesulfonamide hydrochloride]
3 | < 10 | < 1 | Cc1nn(C/C(F)=C/CN)c(Cl)c1-c1cccc(S(=O)(=O)N(C)C)c1 [Compound 35, (Z)-3-(1-(4-amino-2-fluorobut-2-en-1-yl)-5-chloro-3-methyl-1H-pyrazol-4-yl)-N,N-dimethylbenzenesulfonamide hydrochloride]
4 | < 10 | < 1 | Cc1c(Cc2ccc(S(=O)(=O)N(C)C)c(Cl)c2)c(C(C)O)nn1C/C(F)=C/CN (stereo not shown) [Compound 37, (Z)-4-((1-(4-amino-2-fluorobut-2-en-1-yl)-3-(1-hydroxyethyl)-5-methyl-1H-pyrazol-4-yl)methyl)-2-chloro-N,N-dimethylbenzenesulfonamide]
5 | < 10 | < 1 | COCc1c(Cc2ccc(S(=O)(=O)N(C)C)c(Cl)c2)c(C)nn1C/C(F)=C/CN [Compound 38, (Z)-4-((1-(4-amino-2-fluorobut-2-en-1-yl)-5-(methoxymethyl)-3-methyl-1H-pyrazol-4-yl)methyl)-2-chloro-N,N-dimethylbenzenesulfonamide]
6 | < 10 | < 1 | COCc1nn(C/C(F)=C/CN)c(C)c1Cc1ccc(S(=O)(=O)N(C)C)c(Cl)c1 [Compound 39, (Z)-4-((1-(4-amino-2-fluorobut-2-en-1-yl)-3-(methoxymethyl)-5-methyl-1H-pyrazol-4-yl)methyl)-2-chloro-N,N-dimethylbenzenesulfonamide]
7 | < 10 | < 1 | Cc1nn(C/C(F)=C/CN)c(C)c1Oc1ccc(S(=O)(=O)N(C)C)c(Cl)c1 [Compound 40, (Z)-4-((1-(4-amino-2-fluorobut-2-en-1-yl)-3,5-dimethyl-1H-pyrazol-4-yl)oxy)-2-chloro-N,N-dimethylbenzenesulfonamide]
8 | < 10 | < 1 | Cc1nn(C/C(F)=C/CN)c(Cl)c1Cc1ccc(S(=O)(=O)N(C)C)c(Cl)c1 [Compound 41, (Z)-4-((1-(4-amino-2-fluorobut-2-en-1-yl)-5-chloro-3-methyl-1H-pyrazol-4-yl)methyl)-2-chloro-N,N-dimethylbenzenesulfonamide]
9 | < 10 | < 1 | Cc1c(Cc2ccc(S(=O)(=O)N(C)C)c(Cl)c2)c(Cl)nn1C/C(F)=C/CN [Compound 42, (Z)-4-((1-(4-amino-2-fluorobut-2-en-1-yl)-3-chloro-5-methyl-1H-pyrazol-4-yl)methyl)-2-chloro-N,N-dimethylbenzenesulfonamide]
10 | < 10 | < 1 | Cc1nn(C/C(F)=C/CN)c(C(C)C)c1Cc1ccc(S(C)(=O)=O)nc1 [Compound 43, (Z)-3-fluoro-4-(5-isopropyl-3-methyl-4-((6-(methylsulfonyl)pyridin-3-yl)methyl)-1H-pyrazol-1-yl)but-2-en-1-amine dihydrochloride]
11 | < 10 | < 1 | Cc1nn(C/C(F)=C/CN)c(C)c1Cc1ccc(S(=O)(=O)C(F)(F)F)cc1 [Compound 44, (Z)-4-(3,5-dimethyl-4-(4-((trifluoromethyl)sulfonyl)benzyl)-1H-pyrazol-1-yl)-3-fluorobut-2-en-1-amine hydrochloride]
12 | < 10 | < 1 | CNS(=O)(=O)c1ccc(Cc2c(C)nn(C/C(F)=C/CN)c2C)cc1OC(F)(F)F [Compound 45, (Z)-4-((1-(4-amino-2-fluorobut-2-en-1-yl)-3,5-dimethyl-1H-pyrazol-4-yl)methyl)-N-methyl-2-(trifluoromethoxy)benzenesulfonamide hydrochloride]
13 | < 10 | < 1 | Cc1nn(Cc2ccc(S(=O)(=O)N(C)C)c(Cl)c2)c(C)c1C/C(F)=C/CN [Compound 46, (Z)-4-((4-(4-amino-2-fluorobut-2-en-1-yl)-3,5-dimethyl-1H-pyrazol-1-yl)methyl)-2-chloro-N,N-dimethylbenzenesulfonamide hydrochloride]
14 | < 10 | < 1 | Cc1nn(Cc2ccc(S(=O)(=O)N(C)C)cc2Cl)c(C)c1C/C(F)=C/CN [Compound 47, (Z)-4-((4-(4-amino-2-fluorobut-2-en-1-yl)-3,5-dimethyl-1H-pyrazol-1-yl)methyl)-3-chloro-N,N-dimethylbenzenesulfonamide hydrochloride]
15 | < 10 | < 1 | Cc1nn(C/C(F)=C/CN)c(C)c1Cc1ccc(NS(C)(=O)=O)cc1 [Compound 48, (Z)—N-(4-((1-(4-amino-2-fluorobut-2-en-1-yl)-3,5-dimethyl-1H-pyrazol-4-yl)methyl)phenyl)methane-sulfonamide hydrochloride]
16 | < 10 | < 1 | Cc1nn(C/C(F)=C/CN)c(C)c1Cc1ccc(S(=O)(=O)C(C)C)c(Cl)c1 [Compound 49, (Z)-4-(4-(3-chloro-4-(isopropylsulfonyl)benzyl)-3,5-dimethyl-1H-pyrazol-1-yl)-3-fluorobut-2-en-1-amine hydrochloride]
17 | < 10 | < 1 | Cc1c(Cc2ccc(S(=O)(=O)N(C)C)cc2)c(C(C)(C)C)nn1C/C(F)=C/CN [Compound 50, (Z)-4-((1-(4-amino-2-fluorobut-2-en-1-yl)-3-(tert-butyl)-5-methyl-1H-pyrazol-4-yl)methyl)-N,N-dimethylbenzenesulfonamide hydrochloride]

Source: US20200069648A1, “HALOALLYLAMINE PYRAZOLE DERIVATIVE INHIBITORS OF LYSYL OXIDASES AND USES THEREOF” (Pharmaxis Ltd., priority 2017, published 2020)
